This is an account of results in patent US6949522B2, “β-2′- or 3′-halonucleosides” (Pharmasset, Inc., priority 2001, dated 2005).

The EC90 is the point of the concentration-response curve where the effect stands at 90%. Read a low EC90 as an effect from little substance.

In data set [1] the test system is HIV-1 LAI (wild type). The experiment in a line: HIV-1 RT-assay on supernatant of acutely infected human PBM cells, strain LAI. In kind it is cell-based. The settings on record: 5 days, RT activity reduced by 90%. How it is done:
Human PBM cells (1×10^6 cells/T25 flask) were PHA stimulated for 2 or 3 days, and infected with either a wild type (LAI and xxBRU) or a 3TC-resistant (xxBRU 184V) HIV-1 strain at 100 TCID50, as previously described (27). The culture was kept for 5 days in presence of test compounds at serial 1-log dilutions. Subsequently, human PBM cells were removed from the culture supernatant by centrifugation (10 minutes, 400×g, 4° C.). This clarified supernatant was tested either in the RT-assay, or in the Q-RT-PCR assay.
Virus particles present in a 1 mL aliquot of culture supernatant were concentrated by high-speed centrifugation (2 hours, 20,000×g, 4° C.). The supernatant was then removed and the virus pellet was dispensed into a 100 μL virus solubilization buffer (VSB: 0.5% Triton X-100; 0.8 M NaCl, 0.5 mM phenylmethylsulfonyl, 20% glycerol, 50 mM Tris.HCl pH 7.8). A 10 μL aliquot of RT-VSB was mixed with 75 μL RT cocktail (60 mM Tris.HCl pH 7.8, 12 mM MgCl2, 6 mM DTT, 6 μg/mL poly (rA)n-oligo (dT)10-12, 1.2 mM dATP, and 80 μCi/mL 3H-TTP) and incubated for 2 hours at 37° C. Subsequently 100 μL of 10% TCA was added, and the total amount of incorporated 3H-TTP was determined.
HIV-1 present in culture supernatant fluids was quantified by two different methodologies: i) the Q-RT-PCR with read-out in log copies/mL; and ii) the endogenous viral RT assay on cell supernatant with read-out in log counts per minute/mL (CPM/mL). Upon addition of antiviral compounds to the culture media, a dose-related decrease in virus production was observed. Although the two methodologies measured different parameters (viral RNA versus active RT enzyme), results were not markedly different from each other. The HIV-1 Q-RT-PCR results were compared with a previously established cell-based antiviral drug evaluation assay (endogenous HIV-1 RT polymerization activity in cell supematant)(27).

Data set [2] has as its system mitochondrial cytochrome C oxidase subunit II (COXII) gene. Type of data set: cell-based, human. The following applies: HepG2, 10 μM, 7 days; for COXIINrDNA (range) relative to control: COXII DNA normalized to rDNA. An excerpt:
The Q-RT-PCR technology was also used to evaluate potential mitochondrial γ-DNA polymerase inhibition by the compounds of the present invention in relevant human cells. […] Since active nucleoside compounds in the triphosphate form lack a 3′-OH, thereby stopping virus replication by chain termination, there is a concern that these nucleoside analogues are also substrates for the human DNA polymerase γ, resulting in inhibition of mitochondrial DNA replication and subsequently toxic side effects (11, 19). In an attempt to provide direct quantifiable data on mitochondrial DNA levels intracellular, a Q-PCR technology was designed and relative quantification of COXII DNA levels were calculated using the comparative Ct method. […] Also, in agreement with previous observations, no changes in normalized mitochondrial DNA levels were observed after FIAU and D4T treatment (6, 8, 23).
Low passage number HepG2 cells, obtained from American Tissue Culture Collection (ATCC, Manassas, Va.) were seeded at 5,000 cells/well in collagen-coated 96-well plates. Test compounds were added to the media to obtain a final concentration of 10 μM. On culture day 7, cellular nucleic acids were prepared by using commercially available columns (RNeasy 96 kit, Qiagen). […] The mitochondrial cytochrome C oxidase subunit II (COXII) gene and the β-actin or rRNA gene were amplified from 5 μL with a multiplex Q-PCR protocol using the suitable primers and probes for both target and reference (designed using the Primer Express software, Applied Biosystems); • for COXII. • sense primer 5′-[…]-3′ (Sequence 7); • probe 5′-TET-[…]-TAMRA-3′ (Sequence 8); and • antisense probe 5′-[…]-3′ (Sequence 9); • for exon 3 of β-actin (GenBank E01094): • sense primer 5′-[…]-3′ (Sequence 10); • probe 5′-6FAM-[…]-TAMRA-3′ (Sequnece 11); and • antisense probe 5′-[…]-3′ (Sequence 12).
The rRNA gene primers and probes were purchased from Applied Biosystems. Standard curves using 1-log diluted total HepG2 DNA were linear over more than 5 logs. In addition, efficiencies of target (COXII DNA) and reference (β-actin DNA or rRNA) amplification were approximately equal, because the slope of the ΔCt line (Ct β-actin minus Ct mitochondrial) was less than 0.1 (not shown). Since equal amplification efficiencies were obtained for both genes, the comparative cycle threshold (Ct) method was used to investigate potential inhibition of the mitochondrial DNA polymerase γ. The comparative Ct method uses arithmetic formulas in which the amount of target (COXII gene) is normalized to an endogenous reference (β-actin gene or rRNA gene) and is relative to a calibrator (no drug control at day 7). The arithmetic formula for this approach is given by 2-ΔΔCt (User bulletin # 2, Applied Biosystems).
In order to study the consequences of possible inhibitory effects of these compounds on host DNA polymerases, nuclear and rnitochondrial DNA levels were quantified and compared to no-treatment controls. Cells were incubated for 7 days with 10 μM of each compound, followed by total nucleic acid extractions and multiplex Q-PCR of the rRNA gene and the mitochondrial COXII gene. Nucleic acids from cells exposed to the control compounds were also amplified in multiplex for mitDNA and the β-actin gene. The results are presented in Table 4 using the comparative Ct method.

The mark [3] stands for this setting: Human immunodeficiency virus 1, PBMC, 120 h.

Molecules are shown by their SMILES. A value given as a limit tells only on which side of the number the result lay.

`Cc1cn([C@H]2C[C@H](N=[N+]=[N-])[C@@H](CO)O2)c(=O)[nH]c1=O` [AZT, 3′-azido-3′-deoxythymidine, reference compound] showed an EC90 in data set [1] (setting [3]) of 0.02 µM. Further, in data set [2], the “Average ΔCt ± SD COXII DNA” value was determined as 0.25 ± 0.13, the “Average ΔΔCt ± SD COXII-rDNA” value is recorded as −0.61 ± 0.56 and the “Average ΔΔCt ± SD COXII-β-actin” value is reported as 0.16 ± 0.44.
`Nc1ccn([C@@H]2CS[C@H](CO)O2)c(=O)n1` [Compound 3TC, (−)-β-2′,3′-dideoxy-3′-thiacytidine, reference compound] gave an EC90 in data set [1] (setting [3]) of 0.13 µM. Also, the “COXIINrDNA (range) relative to control” value in data set [2] (2-ΔΔCt) is recorded as 1.31 (0.92-1.88). Also, the “COXIINβ-actin DNA (range) relative to control” value in data set [2] (COXII DNA normalized to β-actin DNA, 2-ΔΔCt) was 1.02 (0.75-1.37). For the same compound, in data set [2], the “Average ΔCt ± SD COXII DNA” value is listed as 0.08 ± 0.33, the “Average ΔΔCt ± SD COXII-rDNA” value is −0.39 ± 0.50 and the “Average ΔΔCt ± SD COXII-β-actin” value was −0.02 ± 0.43.
`Nc1ccn([C@@H]2C=C(F)[C@H](CO)O2)c(=O)n1` [Compound 10, 1-(2,3-Dideoxy-3-fluoro-β-L-glycero-pent-2-eno-furanosyl)cytosine]: in data set [1] (setting [3]), the 90% effect level (EC90) was put at 25.3 µM. Moreover, the “COXIINrDNA (range) relative to control” value in data set [2] (2-ΔΔCt) is recorded as 1.16 (0.81-1.64). In data set [2], the “Average ΔCt ± SD COXII DNA” value is reported as −0.29 ± 0.19 and the “Average ΔΔCt ± SD COXII-rDNA” value was −0.21 ± 0.51.
In data set [1], `Nc1ccn([C@@H]2C=C(F)[C@H](CO)O2)c(=O)n1` [Compound 23, 1-(2,3-Didcoxy-3-fluoro-β-L-glycero-pent-2-eno-furanosyl)cytosine] showed an EC90 of 0.67 µM. In addition, in data set [2] (2-ΔΔCt), the “COXIINrDNA (range) relative to control” value is given as 0.78 (0.59-1.04). Further, in data set [2], the “Average ΔCt ± SD COXII DNA” value was −0.16 ± 0.17 and the “Average ΔΔCt ± SD COXII-rDNA” value came out at 0.36 ± 0.41.
The like results for `Nc1ccn([C@@H]2S[C@H](CO)C=C2F)c(=O)n1` [Compound D-17, (−)-1-[(1S,4R)-2,3-dideoxy-2,3-didehydro-2-fluoro4-thio-β-D-ribofuranosyl]-cytosine] were, in that order, 11.9 µM, 1.94 (1.31-2.87), −0.14 ± 0.10 and −0.96 ± 0.56.
The like results for `Nc1nc(=O)n([C@@H]2S[C@H](CO)C=C2F)cc1F` [Compound D-18, (−)-1-[(1S,4R)-2,3-dideoxy-2,3-didehydro-2-fluoro-4-thio-β-D-ribofuranosyl]-5-fluorocytosine] were, in that order, over 100 µM, 0.96 (0.78-1.17), −0.39 ± 0.43 and 0.06 ± 0.29.
`Nc1ccn([C@H]2S[C@@H](CO)C=C2F)c(=O)n1` [Compound L-17, (+)-1-[(1S,4R)-2,3-dideoxy-2,3-didehydro-2-fluoro-4-thio-β-L-ribofuranosyl]-cytosine] gave an EC90 in data set [1] of 3.3 µM. For the same compound, the “COXIINrDNA (range) relative to control” value in data set [2] (2-ΔΔCt) is listed as 1.46 (0.87-2.47). In data set [2], the “Average ΔCt ± SD COXII DNA” value was −0.05 ± 0.16 and the “Average ΔΔCt ± SD COXII-rDNA” value is −0.55 ± 0.75.
The like results for `Nc1nc(=O)n([C@H]2S[C@@H](CO)C=C2F)cc1F` [Compound L-18, (+)-1-[(1S,4R)-2,3-dideoxy-2,3-didehydro-2-fluoro-4-thio-β-L-ribofuranosyl]-5-fluoro-cytosine] were, in that order, 2.6 µM, 1.12 (0.76-1.64), −0.06 ± 0.24 and −0.16 ± 0.56.
